In US20230293519A1, “INTEGRIN INHIBITORS AND USES THEREOF IN COMBINATION WITH OTHER AGENTS” (Pliant Therapeutics, Inc., priority 2021, published 2023):

Experiments:
[1] = test system: Type I Collagen gene Col1a1 expression; assay: Precision cut lung slices of mice under acute bleomycin exposure; assay type: cell-based, mouse; conditions: slices cultured 3 days; integrin inhibitors at IC50, pan-αv and ALK5 inhibitors at 10x IC50
Description: Mice (C57BL/6) were administered 3 U/kg of bleomycin (Teva Pharmaceuticals; North Wales, PA) on day 0 via oropharyngeal aspiration while under anesthesia. On day 14, precision cut lung slices were obtained. Following euthanization, 2% low gelling temp agarose was injected into the mouse lungs via the trachea. […] The lobes were then subjected to precision slicing to obtain samples for culture using a microtome (Compresstome VF-300-0Z, Precisionary; Greenville, NC). Individual slices were distributed in a multiwell culture plate and cultured for 3 days under control (DMSO) and test compound conditions.

lung Col1a1 expression [2] = assay: Precision cut lung slices of mice under chronic bleomycin exposure (single vs dual integrin inhibition); assay type: cell-based, mouse; conditions: slices cultured 7 days
Description: Mice (C57BL/6) were administered 3 U/kg of bleomycin (Teva Pharmaceuticals; North Wales, PA) on Day 0 and 1 U/kg of bleomycin on days 14, 28, 42 and 56 via oropharyngeal aspiration while under anesthesia. At day 70, 14 days after the final bleomycin insult, precision cut lung slices were obtained. Following euthanization, 2% low gelling temp agarose was injected into the mouse lungs via the trachea. […] The lobes were then subjected to precision slicing to obtain samples for culture using a microtome (Compresstome VF-300-0Z, Precisionary; Greenville, NC). Individual slices were distributed in a multiwell culture plate and cultured for 7 days under control (DMSO) and test compound conditions. […]
During the culture period, slices in the control group were treated with DMSO and slices in the test group were treated with a DMSO solution of one of: the selective antibody αvβ6 inhibitor 3G9; the αvβ1-selective small molecule inhibitor; a combination of the selective antibody αvβ6 inhibitor 3G9 and the αvβ1-selective small molecule inhibitor; compound 5; and the small molecule ALK5 inhibitor. The selective αvβ1 and αvβ6 integrin inhibitors were analyzed at ≥ their respective IC90 concentrations for inhibition of TGF-beta activation. […] The small molecule ALK5 inhibitor was analyzed at 10x its reported IC50 value.

lung Col1a1 expression [3] = assay: Precision cut lung slices of mice under chronic bleomycin exposure (vs pirfenidone and nintedanib); assay type: cell-based, mouse; conditions: slices cultured 7 days; nintedanib and pirfenidone at 10x therapeutic concentrations
Description: Mice (C57BL/6) were administered 3 U/kg of bleomycin (Teva Pharmaceuticals; North Wales, PA) on Day 0 and 1 U/kg of bleomycin on days 14, 28, 42 and 56 via oropharyngeal aspiration while under anesthesia. At day 70, 14 days following the final bleomycin insult, precision cut lung slices were obtained. Following euthanization, 2% low gelling temp agarose was injected into the mouse lungs via the trachea. […] The lobes were then subjected to precision slicing to obtain samples for culture using a microtome (Compresstome VF-300-0Z, Precisionary; Greenville, NC). Individual slices were distributed in a multiwell culture plate and cultured for 7 days under control (DMSO) and test compound conditions. The viability of the slices over the course of culturing was confirmed by WST-1 assay of mitochondrial activity.
During the culture period, slices in the control group were treated with DMSO and slices in the test group were treated with a DMSO solution of one of: compound 5; nintedanib; pirfenidone; a combination of nintedanib and compound 5; a combination of pirfenidone and compound 5; or the small molecule ALK5 inhibitor. Compound 5 was […] effective to equal or exceed its respective IC50 values at αvβ6 and αvβ1. The small molecule ALK5 inhibitor was analyzed at 10x its reported IC50 value. Nintendanib and pirfenidone were analyzed at concentrations 10x their reported therapeutic concentrations.

lung Col1a1 expression [4] = assay: Precision cut lung slices from human IPF explants, 3 days; assay type: cell-based; conditions: 3G9 ≥400 ng/mL, compound 5 179 nM, ALK5 inhibitor 1 µM
Source text: Explanted lung tissue was obtained from human IPF subjects and inflated with agarose as described in the preceding examples. Biopsy cores were obtained from the agarose-inflated lung tissue. The biopsy cores were subjected to precision slicing to obtain several hundred µm thick. Individual slices were distributed in a multiwell culture plate and cultured for 3 days under control (DMSO) and test compound conditions. The viability of the slices over the course of culturing was confirmed by WST-1 assay of mitochondrial activity.

Cc1cccc(-c2n[nH]cc2-c2ccc(F)c(-c3cnn(CCO)c3)c2)n1 [small molecule ALK5 inhibitor, 4-[2-Fluoro-5-[3-(6-methyl-2-pyridinyl)-1H-pyrazol-4-yl]phenyl]-1H-pyrazole-1-ethanol, reference compound]
Type I Collagen gene Col1a1 expression vs DMSO control [1]: greatest decrease | lung Col1a1 expression vs DMSO control (lung Col1a1 expression [2]): greatest decrease | lung Col1a1 expression vs DMSO control (lung Col1a1 expression [3]): substantial, statistically significant | lung Col1a1 expression vs DMSO control (lung Col1a1 expression [4]): substantial, statistically significant
